Where a name gives a salt, the structure may show the parent alone.
The compounds below were run against T1, human CGT (ceramide galactosyltransferase), CHO/CGT lysate (Homo sapiens, UniProt Q16880) (assay: CGT enzyme assay, RapidFire/MS/MS readout (Table 1 ranges with one asterisk *)). Details: RapidFire method (range with one asterisk *).
T1 construct: Full-length human CGT cDNA was cloned into the BamH1/Xho1 site of pcDNA3.1 (+); expressed in transfected cells; host or cells: Chinese hamster ovary (CHO) cells; lysate prepared with M-PER
T1 sequence (Q16880 21-541): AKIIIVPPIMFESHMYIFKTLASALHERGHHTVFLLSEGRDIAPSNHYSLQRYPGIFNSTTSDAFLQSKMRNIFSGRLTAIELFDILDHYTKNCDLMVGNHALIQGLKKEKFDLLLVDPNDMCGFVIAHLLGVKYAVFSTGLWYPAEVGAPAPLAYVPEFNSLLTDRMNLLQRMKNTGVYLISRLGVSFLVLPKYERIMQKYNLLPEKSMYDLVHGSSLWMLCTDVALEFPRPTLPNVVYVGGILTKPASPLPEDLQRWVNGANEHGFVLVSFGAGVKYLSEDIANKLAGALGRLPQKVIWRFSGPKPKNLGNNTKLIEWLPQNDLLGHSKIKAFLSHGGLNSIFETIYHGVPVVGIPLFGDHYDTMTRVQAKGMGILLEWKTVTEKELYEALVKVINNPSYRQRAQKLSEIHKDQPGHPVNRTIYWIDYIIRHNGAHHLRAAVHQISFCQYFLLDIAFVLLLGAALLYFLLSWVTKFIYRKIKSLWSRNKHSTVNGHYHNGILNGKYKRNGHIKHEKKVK
Format: biochemical
Method in brief: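 IC50s come from variable-slope dose-response fits of internal-standard-normalized C6-NBD-dihydro-galactosylceramide, measured by RapidFire/MS/MS (ESI negative). Reactions: 1 h, 37 °C, human CGT-expressing CHO lysate (4 μg), 0.001–50 μM compound, 10 μM NBD-dihydro-ceramide, 17.5 μM UDP-galactose, 0.5% DMSO, pH 7.2; 0.01% Tween 80 added for ** values.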

`CN([C@H](C(=O)N1C2CCC1CC(N)C2)C(F)(F)c1ccc(OCc2ccccc2)cc1)S(=O)(=O)c1ccc2cc(OC3CCCC3)ccc2c1` (stereo partly drawn) [Compound 106-1, N-((2R)-3-(3-amino-8-azabicyclo[3.2.1]octan-8-yl)-1-(4-(benzyloxy)phenyl)-1,1-difluoro-3-oxopropan-2-yl)-6-(cyclopentyloxy)-N-methylnaphthalene-2-sulfonamide] was tested. Which IC50 did it give?
The IC50 was 1 to 10 µM.

For `NC1CC2CCC(C1)N2C(=O)[C@@H](NS(=O)(=O)c1ccc2cc(OC3CCCC3)ccc2c1)C(F)(F)c1ccc(C(F)(F)F)cc1` (stereo partly drawn) [Compound 54-1, N-((2R)-3-(3-amino-8-azabicyclo[3.2.1]octan-8-yl)-1,1-difluoro-3-oxo-1-(4-(trifluoromethyl)phenyl)propan-2-yl)-6-(cyclopentyloxy)naphthalene-2-sulfonamide], which IC50 is on record?
The IC50 was under 1 µM.

With `NC1CCN(C(=O)[C@H](NS(=O)(=O)c2ccc3cc(OC4CCCC4)ccc3c2)C(F)(F)c2ccc(Cl)cc2)CC1` [Compound 98-2, (S)—N-(3-(4-aminopiperidin-1-yl)-1-(4-chlorophenyl)-1,1-difluoro-3-oxopropan-2-yl)-6-(cyclopentyloxy)naphthalene-2-sulfonamide] as the compound, how does the IC50 read?
Its IC50 is 10 to 30 µM.

Which IC50 does the source give for `NC1CC2CCC(C1)N2C(=O)[C@H](NC(=O)[C@@H](O)c1ccc2cc(OC3CCCC3)ccc2c1)C(F)(F)c1ccc(-c2ccc(Cl)cc2)cc1` (stereo partly drawn) [Compound 136-2, (2S)—N-((2S)-3-(3-amino-8-azabicyclo[3.2.1]octan-8-yl)-1-(4′-chloro-[1,1′-biphenyl]-4-yl)-1,1-difluoro-3-oxopropan-2-yl)-2-(6-(cyclopentyloxy)naphthalen-2-yl)-2-hydroxyacetamide trifluoroacetate] here?
The IC50 was 30 to 100 µM.

How did the IC50 turn out when `NC1CCN(C(=O)[C@@H](NS(=O)(=O)c2ccc3cc(OC4CCCC4)ccc3c2)C(F)(F)c2ccc(Cl)cc2)CC1` [Compound 98-1, (R)—N-(3-(4-aminopiperidin-1-yl)-1-(4-chlorophenyl)-1,1-difluoro-3-oxopropan-2-yl)-6-(cyclopentyloxy)naphthalene-2-sulfonamide] was run?
The IC50 was 1 to 10 µM.

`N[C@@H]1CCCN(C(=O)[C@H](NS(=O)(=O)c2ccc3cc(OC4CCCC4)ccc3c2)C(F)(F)c2ccc(Br)cc2)C1` [Compound 122-2, N—((S)-3-((R)-3-aminopiperidin-1-yl)-1-(4-bromophenyl)-1,1-difluoro-3-oxopropan-2-yl)-6-(cyclopentyloxy)naphthalene-2-sulfonamide] was tested. Which IC50 did it give?
The IC50 was 30 to 100 µM.

With `CN([C@H](C(=O)N1C2CCC1CC(N)C2)C(F)(F)c1ccc(Br)cc1)S(=O)(=O)c1ccc2cc(OC3CCCC3)ccc2c1` (stereo partly drawn) [Compound 34-1, N-((2R)-3-(3-amino-8-azabicyclo[3.2.1]octan-8-yl)-1-(4-bromophenyl)-1,1-difluoro-3-oxopropan-2-yl)-6-(cyclopentyloxy)-N-methylnaphthalene-2-sulfonamide trifluoroacetate] as the compound, how does the IC50 read?
Its IC50 is under 1 µM.

Which IC50 does the source give for `CN([C@H](C(=O)N1CCC(N)CC1)C(F)(F)c1ccc(Oc2ccccc2)cc1)S(=O)(=O)c1ccc2cc(OC3CCCC3)ccc2c1` [Compound 62-1, (R)—N-(3-(4-aminopiperidin-1-yl)-1,1-difluoro-3-oxo-1-(4-phenoxyphenyl)propan-2-yl)-6-(cyclopentyloxy)-N-methylnaphthalene-2-sulfonamide trifluoroacetate] here?
Its IC50 is 1 to 10 µM.

With `CCN([C@H](C(=O)N1C2CCC1CC(N)C2)C(F)(F)c1ccc(Br)cc1)S(=O)(=O)c1ccc2cc(OC3CCCC3)ccc2c1` (stereo partly drawn) [Compound 68-1, N-((2R)-3-(3-amino-8-azabicyclo[3.2.1]octan-8-yl)-1-(4-bromophenyl)-1,1-difluoro-3-oxopropan-2-yl)-6-(cyclopentyloxy)-N-ethylnaphthalene-2-sulfonamide] as the compound, how does the IC50 read?
The IC50 was 1 to 10 µM.

With `CN([C@H](C(=O)N1C2CCC1CC(N)C2)C(F)(F)c1ccc(Oc2ccccc2)cc1)S(=O)(=O)c1ccc(OCC2CCCCC2)cc1` (stereo partly drawn) [Compound 85-1, N-((2R)-3-(3-amino-8-azabicyclo[3.2.1]octan-8-yl)-1,1-difluoro-3-oxo-1-(4-phenoxyphenyl)propan-2-yl)-4-(cyclohexylmethoxy)-N-methylbenzene sulfonamide trifluoroacetate] as the compound, how does the IC50 read?
The IC50 was 1 to 10 µM.
